Reference: patent US9156845B2, “4-(substituted amino)-7H-pyrrolo[2,3-d] pyrimidines as LRRK2 inhibitors” (Pfizer Inc., priority 2012, dated 2015)
Like-named read-outs stand apart in the source and are kept apart here.

Key:
Assay in all cases: ActivX kinase probe assay (human PBMC)
Format in all cases: binding
FYN, SRC, YES = test system: FYN, SRC, YES
CDK5 = CDK5 (Homo sapiens (Human), UniProt Q00535); conditions: read-out: percent inhibition
PIP4K2A = PIP4K2A (Homo sapiens (Human), UniProt P48426); conditions: read-out: percent inhibition
PIP4K2A, sequence (P48426 whole entry): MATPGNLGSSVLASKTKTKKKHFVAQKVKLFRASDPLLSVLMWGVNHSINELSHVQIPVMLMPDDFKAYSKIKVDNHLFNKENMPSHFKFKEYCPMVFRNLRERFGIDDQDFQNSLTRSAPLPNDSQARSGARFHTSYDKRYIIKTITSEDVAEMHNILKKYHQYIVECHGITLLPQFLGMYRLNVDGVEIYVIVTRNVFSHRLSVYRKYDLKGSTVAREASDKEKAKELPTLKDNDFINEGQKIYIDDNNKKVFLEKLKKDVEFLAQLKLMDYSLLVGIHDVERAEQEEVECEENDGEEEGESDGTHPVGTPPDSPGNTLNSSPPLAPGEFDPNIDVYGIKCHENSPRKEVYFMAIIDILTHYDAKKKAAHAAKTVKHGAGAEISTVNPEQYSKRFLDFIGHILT

STLK5 = STLK5 (Homo sapiens (Human), UniProt Q7RTN6); conditions: read-out: percent inhibition
STLK5, sequence (Q7RTN6 whole entry): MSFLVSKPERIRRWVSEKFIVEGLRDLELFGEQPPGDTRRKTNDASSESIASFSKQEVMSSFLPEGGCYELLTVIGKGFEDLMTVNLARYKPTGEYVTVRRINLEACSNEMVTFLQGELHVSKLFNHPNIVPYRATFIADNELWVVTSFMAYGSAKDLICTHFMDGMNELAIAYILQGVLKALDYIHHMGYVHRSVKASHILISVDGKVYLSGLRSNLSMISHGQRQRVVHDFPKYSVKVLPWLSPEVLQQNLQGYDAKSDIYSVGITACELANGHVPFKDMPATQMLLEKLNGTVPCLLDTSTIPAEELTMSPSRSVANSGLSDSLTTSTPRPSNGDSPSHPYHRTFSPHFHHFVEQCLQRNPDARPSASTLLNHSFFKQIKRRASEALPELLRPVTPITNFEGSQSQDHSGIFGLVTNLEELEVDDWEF

RIPK3 = RIPK3 (Homo sapiens (Human), UniProt Q9Y572); conditions: read-out: percent inhibition
MLK3 = MLK3 (Homo sapiens (Human), UniProt Q16584); conditions: read-out: percent inhibition
MLK3, sequence (Q16584 whole entry): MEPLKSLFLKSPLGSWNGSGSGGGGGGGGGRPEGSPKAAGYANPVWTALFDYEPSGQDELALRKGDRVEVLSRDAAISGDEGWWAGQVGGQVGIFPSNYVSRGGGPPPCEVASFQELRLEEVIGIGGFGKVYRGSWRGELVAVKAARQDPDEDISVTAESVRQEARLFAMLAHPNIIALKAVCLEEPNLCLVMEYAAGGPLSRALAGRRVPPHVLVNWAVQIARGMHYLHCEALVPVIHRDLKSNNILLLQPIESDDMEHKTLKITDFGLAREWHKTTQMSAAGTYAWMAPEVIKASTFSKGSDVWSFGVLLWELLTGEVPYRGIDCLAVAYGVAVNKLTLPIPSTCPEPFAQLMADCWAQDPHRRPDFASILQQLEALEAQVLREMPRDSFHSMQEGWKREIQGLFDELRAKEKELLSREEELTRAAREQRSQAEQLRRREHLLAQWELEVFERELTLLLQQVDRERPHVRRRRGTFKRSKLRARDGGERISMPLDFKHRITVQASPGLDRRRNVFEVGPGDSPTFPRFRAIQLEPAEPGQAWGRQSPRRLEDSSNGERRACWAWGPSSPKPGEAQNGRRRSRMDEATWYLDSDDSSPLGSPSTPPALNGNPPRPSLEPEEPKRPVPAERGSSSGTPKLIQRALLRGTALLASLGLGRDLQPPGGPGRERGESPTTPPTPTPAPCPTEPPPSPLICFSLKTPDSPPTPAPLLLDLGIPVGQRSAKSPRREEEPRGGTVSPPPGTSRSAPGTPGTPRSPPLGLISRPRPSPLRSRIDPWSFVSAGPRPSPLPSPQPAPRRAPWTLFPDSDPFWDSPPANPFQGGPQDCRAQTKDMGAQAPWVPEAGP

Wnk1, Wnk2, Wnk3 = test system: Wnk1, Wnk2, Wnk3
SMG1 = SMG1 (Homo sapiens (Human), UniProt Q96Q15); conditions: read-out: percent inhibition
ZAP70 = ZAP70 (Homo sapiens (Human), UniProt P43403); conditions: read-out: percent inhibition
ZAP70, sequence (P43403 whole entry): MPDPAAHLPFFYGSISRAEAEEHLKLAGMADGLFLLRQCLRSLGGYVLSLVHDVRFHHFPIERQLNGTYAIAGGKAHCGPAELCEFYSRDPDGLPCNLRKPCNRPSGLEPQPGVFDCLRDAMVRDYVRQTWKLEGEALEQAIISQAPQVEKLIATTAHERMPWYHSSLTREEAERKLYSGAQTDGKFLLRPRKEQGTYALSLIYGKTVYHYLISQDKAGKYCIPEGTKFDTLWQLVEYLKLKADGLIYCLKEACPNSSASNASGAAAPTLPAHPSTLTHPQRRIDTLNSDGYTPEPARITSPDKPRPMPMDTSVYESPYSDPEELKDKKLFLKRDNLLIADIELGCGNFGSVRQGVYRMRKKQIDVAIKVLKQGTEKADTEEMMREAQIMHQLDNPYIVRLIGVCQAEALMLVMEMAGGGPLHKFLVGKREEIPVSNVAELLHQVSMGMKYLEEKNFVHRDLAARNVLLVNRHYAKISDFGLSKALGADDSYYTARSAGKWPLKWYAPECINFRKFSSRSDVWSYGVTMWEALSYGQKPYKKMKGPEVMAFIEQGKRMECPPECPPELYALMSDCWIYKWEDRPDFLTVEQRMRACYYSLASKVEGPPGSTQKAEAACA

FRAP = FRAP (Homo sapiens (Human), UniProt P42345); conditions: read-out: percent inhibition
AMPKa1, AMPKa2 = test system: AMPKa1, AMPKa2
NEK6, NEK7 = test system: NEK6, NEK7
OSR1 = OSR1 (Homo sapiens (Human), UniProt O95747); conditions: read-out: percent inhibition
LYN = LYN (Homo sapiens (Human), UniProt P07948); conditions: read-out: percent inhibition
CaMK2d = CaMK2d (Homo sapiens (Human), UniProt Q13557); conditions: read-out: percent inhibition
PITSLRE = test system: PITSLRE
CaMK1a = CaMK1a (Homo sapiens (Human), UniProt Q14012); conditions: read-out: percent inhibition
Wnk1, Wnk2, Wnk4 = test system: Wnk1, Wnk2, Wnk4
NDR1 = NDR1 (Homo sapiens (Human), UniProt Q15208); conditions: read-out: percent inhibition
GPRK6 = GPRK6 (Homo sapiens (Human), UniProt P43250); conditions: read-out: percent inhibition
CHK2 = CHK2 (Homo sapiens (Human), UniProt O96017); conditions: read-out: percent inhibition
CHK2, sequence (O96017 whole entry): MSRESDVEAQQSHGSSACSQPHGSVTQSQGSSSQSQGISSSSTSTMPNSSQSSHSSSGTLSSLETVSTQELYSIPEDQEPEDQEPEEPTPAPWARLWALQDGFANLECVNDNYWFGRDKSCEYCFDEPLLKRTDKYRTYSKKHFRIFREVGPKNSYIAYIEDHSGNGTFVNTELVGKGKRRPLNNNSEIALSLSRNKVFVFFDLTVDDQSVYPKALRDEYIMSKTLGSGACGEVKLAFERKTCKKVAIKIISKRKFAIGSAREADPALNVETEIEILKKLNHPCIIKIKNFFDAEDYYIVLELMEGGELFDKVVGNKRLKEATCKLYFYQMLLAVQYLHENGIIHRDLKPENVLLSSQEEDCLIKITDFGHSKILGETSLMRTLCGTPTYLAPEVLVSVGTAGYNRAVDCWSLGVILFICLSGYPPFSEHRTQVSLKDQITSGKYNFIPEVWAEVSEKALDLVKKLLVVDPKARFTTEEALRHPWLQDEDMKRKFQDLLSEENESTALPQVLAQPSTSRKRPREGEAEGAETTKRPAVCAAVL

AKT2, AKT3 = test system: AKT2, AKT3
EphA1 = EphA1 (Homo sapiens (Human), UniProt P21709); conditions: read-out: percent inhibition
KSR1, KSR2 = test system: KSR1, KSR2
MAP2K1, MAP2K2 = test system: MAP2K1, MAP2K2
MAP3K3 = MAP3K3 (Homo sapiens (Human), UniProt Q99759); conditions: read-out: percent inhibition
MAP3K3, sequence (Q99759 whole entry): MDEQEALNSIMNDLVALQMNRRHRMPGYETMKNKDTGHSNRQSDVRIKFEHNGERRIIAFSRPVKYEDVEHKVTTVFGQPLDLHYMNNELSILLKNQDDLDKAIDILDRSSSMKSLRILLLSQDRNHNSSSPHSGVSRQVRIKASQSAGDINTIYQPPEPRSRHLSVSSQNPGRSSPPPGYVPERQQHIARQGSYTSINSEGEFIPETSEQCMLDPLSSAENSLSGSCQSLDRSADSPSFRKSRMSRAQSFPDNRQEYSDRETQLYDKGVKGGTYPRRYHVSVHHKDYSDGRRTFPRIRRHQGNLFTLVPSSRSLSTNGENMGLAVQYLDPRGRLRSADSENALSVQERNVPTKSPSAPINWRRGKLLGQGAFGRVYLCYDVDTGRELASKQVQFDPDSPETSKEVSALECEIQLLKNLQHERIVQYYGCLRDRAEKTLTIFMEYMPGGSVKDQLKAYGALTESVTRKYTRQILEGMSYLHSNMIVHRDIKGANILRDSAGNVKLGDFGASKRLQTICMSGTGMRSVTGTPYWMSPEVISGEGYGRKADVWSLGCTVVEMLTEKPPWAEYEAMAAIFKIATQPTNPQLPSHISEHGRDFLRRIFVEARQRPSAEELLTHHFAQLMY

p70S6K = p70S6K (Homo sapiens (Human), UniProt P23443); conditions: read-out: percent inhibition
LKB1 = LKB1 (Homo sapiens (Human), UniProt Q15831); conditions: read-out: percent inhibition
LKB1, sequence (Q15831 1-430): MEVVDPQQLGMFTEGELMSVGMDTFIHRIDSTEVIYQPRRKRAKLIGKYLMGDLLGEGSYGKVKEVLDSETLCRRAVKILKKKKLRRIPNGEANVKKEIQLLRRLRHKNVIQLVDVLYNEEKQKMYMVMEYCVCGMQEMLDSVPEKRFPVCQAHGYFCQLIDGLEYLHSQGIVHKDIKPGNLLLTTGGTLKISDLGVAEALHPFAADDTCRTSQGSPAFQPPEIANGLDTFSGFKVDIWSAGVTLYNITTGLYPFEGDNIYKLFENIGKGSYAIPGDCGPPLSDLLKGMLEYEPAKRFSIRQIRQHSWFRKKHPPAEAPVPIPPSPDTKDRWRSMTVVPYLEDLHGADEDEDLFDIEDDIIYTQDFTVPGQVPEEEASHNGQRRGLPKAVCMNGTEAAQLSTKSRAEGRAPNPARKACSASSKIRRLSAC
LKB1, sequence (Q7RTN6 whole entry partner): as the sequence (Q7RTN6 whole entry) above
LKB1, sequence (Q9Y376 whole entry partner): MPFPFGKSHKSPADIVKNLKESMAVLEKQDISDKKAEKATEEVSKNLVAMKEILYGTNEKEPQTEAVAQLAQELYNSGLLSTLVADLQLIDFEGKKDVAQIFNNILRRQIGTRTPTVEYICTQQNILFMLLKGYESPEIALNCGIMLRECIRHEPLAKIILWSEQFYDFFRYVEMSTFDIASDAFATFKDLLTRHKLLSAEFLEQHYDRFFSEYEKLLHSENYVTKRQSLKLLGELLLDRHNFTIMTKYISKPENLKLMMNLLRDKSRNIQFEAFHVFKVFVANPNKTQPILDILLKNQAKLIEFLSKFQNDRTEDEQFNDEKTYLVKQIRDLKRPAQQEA

PIP5K3 = PIP5K3 (Homo sapiens (Human), UniProt Q9Y2I7); conditions: read-out: percent inhibition
ULK3 = ULK3 (Homo sapiens (Human), UniProt Q6PHR2); conditions: read-out: percent inhibition
ULK3, sequence (Q6PHR2 whole entry): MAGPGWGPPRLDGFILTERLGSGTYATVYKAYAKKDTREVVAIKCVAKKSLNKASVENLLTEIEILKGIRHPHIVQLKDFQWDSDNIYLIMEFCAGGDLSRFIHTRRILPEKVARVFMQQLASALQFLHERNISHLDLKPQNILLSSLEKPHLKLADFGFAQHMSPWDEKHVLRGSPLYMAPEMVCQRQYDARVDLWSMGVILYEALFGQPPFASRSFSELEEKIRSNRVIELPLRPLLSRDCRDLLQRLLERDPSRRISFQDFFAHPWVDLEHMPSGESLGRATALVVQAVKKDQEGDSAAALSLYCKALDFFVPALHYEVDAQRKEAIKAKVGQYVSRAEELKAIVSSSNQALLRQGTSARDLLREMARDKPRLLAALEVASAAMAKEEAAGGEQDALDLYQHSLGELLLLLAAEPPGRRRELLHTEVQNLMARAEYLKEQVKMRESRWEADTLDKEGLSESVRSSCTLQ

NEK1 = NEK1 (Homo sapiens (Human), UniProt Q96PY6); conditions: read-out: percent inhibition
MST4, YSK1 = test system: MST4, YSK1
p38d, p38g = test system: p38d, p38g
RSK2 domain1 = RSK2 domain1 (Homo sapiens (Human), UniProt P51812); conditions: read-out: percent inhibition
TBK1 = TBK1 (Homo sapiens (Human), UniProt Q9UHD2); conditions: read-out: percent inhibition
p38a = p38a (Homo sapiens (Human), UniProt Q16539); conditions: read-out: percent inhibition
MAP2K1 = MAP2K1 (Homo sapiens (Human), UniProt Q02750); conditions: read-out: percent inhibition

Cn1cc(-c2c[nH]c3ncnc(N4CCOCC4)c23)cc1C#N [Example 217, 1-methyl-4-[4-(morpholin-4-yl)-7H-pyrrolo[2,3-d]pyrimidin-5-yl]-1H-pyrrole-2-carbonitrile]
percent inhibition (FYN, SRC, YES; 0.1 μM): 18.4% | percent inhibition (FYN, SRC, YES; 1 μM): −1.4% | inhibition at 0.1 µM (CDK5; CDK5, 0.1 μM): 0.5% | inhibition at 1 µM (CDK5; CDK5, 1 μM): 7.9% | inhibition at 0.1 µM (PIP4K2A; PIP4K2A, 0.1 μM): 7.8% | inhibition at 1 µM (PIP4K2A; PIP4K2A, 1 μM): 8.2% | inhibition at 0.1 µM (STLK5; STLK5, 0.1 μM): -6.9% | inhibition at 1 µM (STLK5; STLK5, 1 μM): -11.5% | inhibition at 0.1 µM (RIPK3; RIPK3, 0.1 μM): -7.3% | inhibition at 1 µM (RIPK3; RIPK3, 1 μM): -9.1% | inhibition at 0.1 µM (MLK3; MLK3, 0.1 μM): -13.5% | inhibition at 1 µM (MLK3; MLK3, 1 μM): -9.6% | percent inhibition (Wnk1, Wnk2, Wnk3; 0.1 μM): −6.3% | percent inhibition (Wnk1, Wnk2, Wnk3; 1 μM): −21.1% | inhibition at 0.1 µM (SMG1; SMG1, 0.1 μM): 1.5% | inhibition at 1 µM (SMG1; SMG1, 1 μM): -6.1% | inhibition at 0.1 µM (ZAP70; ZAP70, 0.1 μM): -25% | inhibition at 1 µM (ZAP70; ZAP70, 1 μM): -6% | inhibition at 0.1 µM (FRAP; FRAP, 0.1 μM): 0.7% | inhibition at 1 µM (FRAP; FRAP, 1 μM): 0.9% | percent inhibition (AMPKa1, AMPKa2; 0.1 μM): 5.7% | percent inhibition (AMPKa1, AMPKa2; 1 μM): 16.5% | percent inhibition (NEK6, NEK7; 0.1 μM): −2.9% | percent inhibition (NEK6, NEK7; 1 μM): 6.4% | inhibition at 0.1 µM (OSR1; OSR1, 0.1 μM): 5.2% | inhibition at 1 µM (OSR1; OSR1, 1 μM): -12.3% | inhibition at 0.1 µM (LYN; LYN, 0.1 μM): 8.3% | inhibition at 1 µM (LYN; LYN, 1 μM): -19.2% | inhibition at 0.1 µM (CaMK2d; CaMK2d, 0.1 μM): 9.8% | inhibition at 1 µM (CaMK2d; CaMK2d, 1 μM): 16.1% | percent inhibition (PITSLRE; 0.1 μM): −6.7% | percent inhibition (PITSLRE; 1 μM): 6.6% | inhibition at 0.1 µM (CaMK1a; CaMK1a, 0.1 μM): -5.4% | inhibition at 1 µM (CaMK1a; CaMK1a, 1 μM): -7.1% | percent inhibition (Wnk1, Wnk2, Wnk4; 0.1 μM): 2.2% | percent inhibition (Wnk1, Wnk2, Wnk4; 1 μM): −5.4% | inhibition at 0.1 µM (NDR1; NDR1, 0.1 μM): 16.3% | inhibition at 1 µM (NDR1; NDR1, 1 μM): -17.7% | inhibition at 0.1 µM (GPRK6; GPRK6, 0.1 μM): -0.8% | inhibition at 1 µM (GPRK6; GPRK6, 1 μM): 3.6% | inhibition at 0.1 µM (CHK2; CHK2, 0.1 μM): 8.6% | inhibition at 1 µM (CHK2; CHK2, 1 μM): 6.4% | percent inhibition (AKT2, AKT3; 0.1 μM): −9.7% | percent inhibition (AKT2, AKT3; 1 μM): −3.8% | inhibition at 0.1 µM (EphA1; EphA1, 0.1 μM): 11.1% | inhibition at 1 µM (EphA1; EphA1, 1 μM): -16.1% | percent inhibition (KSR1, KSR2; 0.1 μM): −6.2% | percent inhibition (KSR1, KSR2; 1 μM): −6.8% | percent inhibition (MAP2K1, MAP2K2; 0.1 μM): 10.9% | percent inhibition (MAP2K1, MAP2K2; 1 μM): −2.6% | inhibition at 0.1 µM (MAP3K3; MAP3K3, 0.1 μM): -3.4% | inhibition at 1 µM (MAP3K3; MAP3K3, 1 μM): -6.7% | inhibition at 0.1 µM (p70S6K; p70S6K, 0.1 μM): 3.5% | inhibition at 1 µM (p70S6K; p70S6K, 1 μM): -9.6% | inhibition at 0.1 µM (LKB1; LKB1, 0.1 μM): -5.3% | inhibition at 1 µM (LKB1; LKB1, 1 μM): 2.4% | inhibition at 0.1 µM (PIP5K3; PIP5K3, 0.1 μM): 16% | inhibition at 1 µM (PIP5K3; PIP5K3, 1 μM): 2.5% | inhibition at 0.1 µM (ULK3; ULK3, 0.1 μM): -8.6% | inhibition at 1 µM (ULK3; ULK3, 1 μM): 17.4% | inhibition at 0.1 µM (NEK1; NEK1, 0.1 μM): 4.8% | inhibition at 1 µM (NEK1; NEK1, 1 μM): -5.1% | percent inhibition (MST4, YSK1; 0.1 μM): 5.3% | percent inhibition (MST4, YSK1; 1 μM): 9.9% | percent inhibition (p38d, p38g; 0.1 μM): −0.4% | percent inhibition (p38d, p38g; 1 μM): 1.5% | inhibition at 0.1 µM (RSK2 domain1; RSK2 domain1, 0.1 μM): 13.2% | inhibition at 1 µM (RSK2 domain1; RSK2 domain1, 1 μM): 61.6% | inhibition at 0.1 µM (TBK1; TBK1, 0.1 μM): 1.9% | inhibition at 1 µM (TBK1; TBK1, 1 μM): 0.1% | inhibition at 0.1 µM (p38a; p38a, 0.1 μM): -1.1% | inhibition at 1 µM (p38a; p38a, 1 μM): -4.6% | inhibition at 0.1 µM (MAP2K1; MAP2K1, 0.1 μM): 17.2% | inhibition at 1 µM (MAP2K1; MAP2K1, 1 μM): -1.5%

N#Cc1cccc(-c2c[nH]c3ncnc(N4CCOCC4)c23)c1 [Example 4, 3-[4-(Morpholin-4-yl)-7H-pyrrolo[2,3-d]pyrimidin-5-yl]benzonitrile]
percent inhibition (FYN, SRC, YES; 0.1 μM): −22.8% | percent inhibition (FYN, SRC, YES; 1 μM): −8.8% | inhibition at 0.1 µM (CDK5): -12.2% | inhibition at 1 µM (CDK5): 0.1% | inhibition at 0.1 µM (PIP4K2A): -12.1% | inhibition at 1 µM (PIP4K2A): 1.9% | inhibition at 0.1 µM (STLK5): -15.4% | inhibition at 1 µM (STLK5): 1.2% | inhibition at 0.1 µM (RIPK3): -3.2% | inhibition at 1 µM (RIPK3): 8% | inhibition at 0.1 µM (MLK3): -14.1% | inhibition at 1 µM (MLK3): 19.9% | percent inhibition (Wnk1, Wnk2, Wnk3; 0.1 μM): 1.7% | percent inhibition (Wnk1, Wnk2, Wnk3; 1 μM): −6% | inhibition at 0.1 µM (SMG1): -2.5% | inhibition at 1 µM (SMG1): 13% | inhibition at 0.1 µM (ZAP70): -4.9% | inhibition at 1 µM (ZAP70): 6.8% | inhibition at 0.1 µM (FRAP): -20.7% | inhibition at 1 µM (FRAP): 9.8% | percent inhibition (AMPKa1, AMPKa2; 0.1 μM): −4.5% | percent inhibition (AMPKa1, AMPKa2; 1 μM): 32.5% | percent inhibition (NEK6, NEK7; 0.1 μM): −5.3% | percent inhibition (NEK6, NEK7; 1 μM): −4.9% | inhibition at 0.1 µM (OSR1): -23.1% | inhibition at 1 µM (OSR1): -55.4% | inhibition at 0.1 µM (LYN): -5.4% | inhibition at 1 µM (LYN): 0.8% | inhibition at 0.1 µM (CaMK2d): -0.4% | inhibition at 1 µM (CaMK2d): 10.8% | percent inhibition (PITSLRE; 0.1 μM): −12.4% | percent inhibition (PITSLRE; 1 μM): 10.7% | inhibition at 0.1 µM (CaMK1a): -9.2% | inhibition at 1 µM (CaMK1a): 1.9% | percent inhibition (Wnk1, Wnk2, Wnk4; 0.1 μM): −1.9% | percent inhibition (Wnk1, Wnk2, Wnk4; 1 μM): −1.3% | inhibition at 0.1 µM (NDR1): -4.4% | inhibition at 1 µM (NDR1): 1.7% | inhibition at 0.1 µM (GPRK6): -3.9% | inhibition at 1 µM (GPRK6): 10.9% | inhibition at 0.1 µM (CHK2): -6.8% | inhibition at 1 µM (CHK2): 2.2% | percent inhibition (AKT2, AKT3; 0.1 μM): −2.6% | percent inhibition (AKT2, AKT3; 1 μM): 6.8% | inhibition at 0.1 µM (EphA1): -17% | inhibition at 1 µM (EphA1): -2.5% | percent inhibition (KSR1, KSR2; 0.1 μM): −8.7% | percent inhibition (KSR1, KSR2; 1 μM): 11.7% | percent inhibition (MAP2K1, MAP2K2; 0.1 μM): −7.1% | percent inhibition (MAP2K1, MAP2K2; 1 μM): 6.4% | inhibition at 0.1 µM (MAP3K3): -0.5% | inhibition at 1 µM (MAP3K3): 7.4% | inhibition at 0.1 µM (p70S6K): -9% | inhibition at 1 µM (p70S6K): 11.1% | inhibition at 0.1 µM (LKB1): 3.5% | inhibition at 1 µM (LKB1): 16.5% | inhibition at 0.1 µM (PIP5K3): -11.2% | inhibition at 1 µM (PIP5K3): 21.6% | inhibition at 0.1 µM (ULK3): 3.1% | inhibition at 1 µM (ULK3): 5.2% | inhibition at 0.1 µM (NEK1): -8.9% | inhibition at 1 µM (NEK1): -1.9% | percent inhibition (MST4, YSK1; 0.1 μM): 11.9% | percent inhibition (MST4, YSK1; 1 μM): 60.7% | percent inhibition (p38d, p38g; 0.1 μM): −17.5% | percent inhibition (p38d, p38g; 1 μM): −5.7% | inhibition at 0.1 µM (RSK2 domain1): -6% | inhibition at 1 µM (RSK2 domain1): -11.2% | inhibition at 0.1 µM (TBK1): 7.3% | inhibition at 1 µM (TBK1): 16.4% | inhibition at 0.1 µM (p38a): -14.6% | inhibition at 1 µM (p38a): -1.7% | inhibition at 0.1 µM (MAP2K1): -17.2% | inhibition at 1 µM (MAP2K1): 14%
